Measured values reported in patent US8933040B2, “Selective glycosidase inhibitors and uses thereof” (priority 2010, dated 2015).
Like-named read-outs stand apart in the source and are kept apart here.

How the values were obtained:
human O-GlcNAcase = human O-GlcNAcase (Homo sapiens (Human), UniProt O60502); assay: Fluorescence-based assay for determination of KI values for inhibition of O-GlcNAcase activity; assay type: biochemical
Protocol: Assay for Determination of KI Values for Inhibition of O-GlcNAcase Activity
Experimental Procedure for Kinetic Analyses:
Enzymatic reactions were carried out in a reaction containing 50 mM NaH2PO4, 100 mM NaCl and 0.1% BSA (pH 7.0) using 2 mM 4-Methylumbelliferyl N-acetyl-β-D-glucosaminide dihydrate (Sigma M2133) dissolved in ddH2O, as a substrate. The amount of purified human O-GlcNAcase enzyme used in the reaction was 0.7 nM. Test compound of varying concentrations was added to the enzyme prior to initiation of the reaction. The reaction was performed at room temperature in a 96-well plate and was initiated with the addition of substrate. […] The slope of product production was determined for each concentration of compound tested and plotted, using standard curve fitting algorithms for sigmoidal dose response curves. The values for a four parameter logistic curve fit of the data were determined.

O-GlcNAcase = O-GlcNAcase (Rattus norvegicus (Rat), UniProt Q8VIJ5); assay: Cell-based ELISA for cellular activity of O-GlcNAcase inhibitors (O-GlcNAcylated protein, RL-2 antibody)
Chain of O-GlcNAcase (Q8VIJ5 whole entry): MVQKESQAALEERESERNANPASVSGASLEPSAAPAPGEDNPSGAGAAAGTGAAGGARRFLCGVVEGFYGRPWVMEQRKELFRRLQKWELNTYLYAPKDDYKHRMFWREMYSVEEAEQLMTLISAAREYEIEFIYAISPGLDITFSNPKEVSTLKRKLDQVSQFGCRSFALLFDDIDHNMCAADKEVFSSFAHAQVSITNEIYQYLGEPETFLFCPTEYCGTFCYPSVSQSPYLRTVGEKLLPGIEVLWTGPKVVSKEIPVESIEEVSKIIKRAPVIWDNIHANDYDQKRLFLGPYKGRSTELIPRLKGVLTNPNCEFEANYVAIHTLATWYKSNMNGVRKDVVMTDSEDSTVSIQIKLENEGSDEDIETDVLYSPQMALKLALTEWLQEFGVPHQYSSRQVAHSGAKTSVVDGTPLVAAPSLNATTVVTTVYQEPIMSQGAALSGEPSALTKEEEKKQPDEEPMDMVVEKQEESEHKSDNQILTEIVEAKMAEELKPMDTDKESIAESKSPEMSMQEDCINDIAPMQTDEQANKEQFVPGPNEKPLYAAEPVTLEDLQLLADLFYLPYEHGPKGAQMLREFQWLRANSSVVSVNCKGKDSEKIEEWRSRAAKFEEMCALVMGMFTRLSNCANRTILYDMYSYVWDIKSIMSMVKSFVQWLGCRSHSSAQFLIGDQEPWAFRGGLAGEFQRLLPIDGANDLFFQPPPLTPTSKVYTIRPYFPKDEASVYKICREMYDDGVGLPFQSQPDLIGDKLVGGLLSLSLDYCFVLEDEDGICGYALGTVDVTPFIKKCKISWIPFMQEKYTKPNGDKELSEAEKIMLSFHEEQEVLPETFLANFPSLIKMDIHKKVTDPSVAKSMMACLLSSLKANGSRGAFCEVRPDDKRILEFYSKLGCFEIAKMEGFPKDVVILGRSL
From the text: Assay for Determination of Cellular Activity for Compounds that Inhibit O-GlcNAcase Activity
Inhibition of O-GlcNAcase, which removes O-GlcNAc from cellular proteins, results in an increase in the level of O-GlcNAcylated protein in cells. An increase in O-GlcNAcylated protein can be measured by an antibody, such as RL-2, that binds to O-GlcNAcylated protein. The amount of O-GlcNAcylated protein:RL2 antibody interaction can be measured by enzyme linked immunosorbant assay (ELISA) procedures.
A variety of tissue culture cell lines, expressing endogenous levels of O-GlcNAcase, can be utilized; examples include rat PC-12, and human U-87, or SK—N—SH cells. Rat PC-12 cells were plated in 96-well plates with approximately 10,000 cells/well. Compounds to be tested were dissolved in DMSO, either 2 or 10 mM stock solution, and then diluted with DMSO and water in a two-step process using a Tecan workstation. […] If desired, the total protein concentration of samples was determined using 20 μL of the sample using the BCA method. […]
The values for a four parameter logistic curve fit of the data were determined, with the inflection point of the curve being the potency value for the test compound.

[1] = purified human O-GlcNAcase 0.7 nM, 2 mM 4-Methylumbelliferyl N-acetyl-β-D-glucosaminide, pH 7.0, Cheng-Prusoff, read-out: Fluorescence-based hOGA Ki

Chain of human O-GlcNAcase (O60502 whole entry): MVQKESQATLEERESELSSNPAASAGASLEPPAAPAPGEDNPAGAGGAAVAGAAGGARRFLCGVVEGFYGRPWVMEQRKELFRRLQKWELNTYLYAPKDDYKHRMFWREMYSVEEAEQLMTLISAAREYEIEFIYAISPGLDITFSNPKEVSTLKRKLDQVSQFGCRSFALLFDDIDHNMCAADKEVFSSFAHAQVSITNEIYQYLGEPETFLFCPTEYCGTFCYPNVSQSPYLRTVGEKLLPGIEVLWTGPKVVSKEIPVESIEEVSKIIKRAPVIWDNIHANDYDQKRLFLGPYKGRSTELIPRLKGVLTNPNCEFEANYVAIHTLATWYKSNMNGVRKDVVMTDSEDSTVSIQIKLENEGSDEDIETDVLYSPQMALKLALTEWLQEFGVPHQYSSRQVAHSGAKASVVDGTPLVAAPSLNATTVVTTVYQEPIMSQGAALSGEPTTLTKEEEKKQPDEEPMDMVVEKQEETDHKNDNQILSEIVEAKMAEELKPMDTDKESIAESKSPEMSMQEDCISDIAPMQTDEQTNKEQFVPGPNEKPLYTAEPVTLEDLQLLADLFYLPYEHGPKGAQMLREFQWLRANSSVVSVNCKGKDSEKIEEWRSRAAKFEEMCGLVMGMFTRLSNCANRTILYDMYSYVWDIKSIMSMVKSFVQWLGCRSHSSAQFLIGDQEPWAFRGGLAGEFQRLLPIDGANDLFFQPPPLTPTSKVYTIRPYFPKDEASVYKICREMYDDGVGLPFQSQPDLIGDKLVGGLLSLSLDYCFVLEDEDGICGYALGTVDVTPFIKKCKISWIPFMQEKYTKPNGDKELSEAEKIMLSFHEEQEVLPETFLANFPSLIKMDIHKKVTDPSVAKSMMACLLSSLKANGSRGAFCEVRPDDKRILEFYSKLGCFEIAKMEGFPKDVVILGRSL

Row | SMILES | Ki (human O-GlcNAcase; [1]) [nM] | also measured
1 | OC[C@H]1O[C@@H]2SC(N3CCC3)=N[C@@H]2[C@@H](O)C1O (stereo in doubt) [Example 1, (3aR,5R,6S,7R,7aR)-2-(azetidin-1-yl)-5-(hydroxymethyl)-5,6,7,7a-tetrahydro-3aH-pyrano[3,2-d]thiazole-6,7-diol] |  | Ki (human O-GlcNAcase): 3.3 nM; EC50 (O-GlcNAcase): 28 nM
2 | OC[C@H]1O[C@@H]2SC(N3CC(F)C3)=N[C@@H]2[C@@H](O)[C@@H]1O [Example 3, (3aR,5R,6S,7R,7aR)-2-(3-fluoroazetidin-1-yl)-5-(hydroxymethyl)-5,6,7,7a-tetrahydro-3aH-pyrano[3,2-d]thiazole-6,7-diol] | 30 | 
3 | COC1CN(C2=N[C@@H]3[C@@H](O)[C@H](O)[C@@H](CO)O[C@@H]3S2)C1 [Example 5, (3aR,5R,6S,7R,7aR)-5-(hydroxymethyl)-2-(3-methoxyazetidin-1-yl)-5,6,7,7a-tetrahydro-3aH-pyrano[3,2-d]thiazole-6,7-diol] | 142 | 
4 | OC[C@H]1O[C@@H]2SC(N3CCCC3)=N[C@@H]2[C@@H](O)[C@@H]1O [Example 7, (3aR,5R,6S,7R,7aR)-5-(hydroxymethyl)-2-(pyrrolidin-1-yl)-5,6,7,7a-tetrahydro-3aH-pyrano[3,2-d]thiazole-6,7-diol] | 13 | EC50 (O-GlcNAcase; Rat PC-12 cells, 24 h treatment, increase in O-GlcNAcylated protein detected with RL-2 antibody, read-out: Cell-based ELISA EC50): 165 nM

Further lines, with some results ahead:

Row | Ki (human O-GlcNAcase; [1]) [nM] | SMILES | also measured
5 | 289 | OC[C@H]1O[C@@H]2SC(N3CCOCC3)=N[C@@H]2[C@@H](O)[C@@H]1O [Example 14, (3aR,5R,6S,7R,7aR)-5-(hydroxymethyl)-2-morpholino-5,6,7,7a-tetrahydro-3aH-pyrano[3,2-d]thiazole-6,7-diol] | 
6 | 101 | O[C@H]1[C@H](O)[C@@H](CNC2CC2)O[C@@H]2SC(N3CCC3)=N[C@H]12 [Example 16, (3aR,5R,6S,7R,7aR)-2-(azetidin-1-yl)-5-((cyclopropylamino)methyl)-5,6,7,7a-tetrahydro-3aH-pyrano[3,2-d]thiazole-6,7-diol] | 
7 | 350 | CN(C)C(=O)OC[C@H]1O[C@@H]2SC(N3CCC3)=N[C@@H]2[C@@H](O)[C@@H]1O [Example 18, ((3aR,5R,6S,7R,7aR)-2-(azetidin-1-yl)-6,7-dihydroxy-5,6,7,7a-tetrahydro-3aH-pyrano[3,2-d]thiazol-5-yl)methyl dimethylcarbamate] | 
